“Also recorded” adds a separate entry of the source.

The subject of assay [1] is Klebsiella pneumoniae. In words: Bacterial killing by myeloperoxidase. In kind it is cell-based. The method, then:
Bacterial killing. The bactericidal activity of myeloperoxidase was quantified by conventional procedures as described previously (ref. 27). Briefly, Klebsiella pneumoniae were cultured in Luria-Bertani broth to mid-log growth phase, washed with PBS, and used at 10^9 bacteria/mL. Bacteria were incubated with 5 nM enzyme, 5 nM H2O2, and 100 mM NaCl in PBS (pH 5.5) for 15 min at 37° C. Serial dilutions were immediately spread on agar plates and the colony forming units determined after overnight incubation at 37° C.

Assay [2] in a line: Generation of N-acetyl-L-3-bromotyrosine by the HOCl-Cl^−-Br^− system (reverse-phase HPLC). The method, then: Reaction conditions. Reactions were carried out for 60 min at 37° C. in buffer A (100 mM NaCl, 50 mM sodium phosphate, 100 μM diethylenetriaminepentaacetic acid (DTPA)) supplemented with 1 mM N-acetyl-L-tyrosine and either 50 μM hypohalous acid or 3 nM peroxidase and 50 μM H2O2. Buffer A was passed over a Chelex resin column prior to use to remove redox active transition metal ions. Reactions were initiated by the addition of oxidant and terminated with 0.1 mM methionine. Reverse-phase HPLC analyses of halogenated amino acids. Analyses were performed using a flow rate of 1 mL/min and an Ultrasphere ODS reverse-phase column (4.6 mm×25 cm; 5 μm; Beckman Instruments; Berkeley, Calif.) coupled to a Waters 484 Tunable Absorbance Detector with monitoring at 275 nm. Solvent A was 0.1% trifluoroacetic acid (TFA, pH 2.5), and solvent B was 0.1% TFA in methanol (pH 2.5). The gradient profile was: isocratic elution at 66:34 (v/v) A:B over 2.1 min; linear increase of B from 34% to 40% over 30 min; isocratic elution at 60:40 A:B for 3 min; increase of B from 40% to 100% over 2 min; and isocratic elution at 100% B for 3 min. Products were quantified using integrated peak areas by comparison to standard curves of authentic N-Ac-chlorotyrosine and N-Ac-bromotyrosine.

In assay [3] the target is T1, myeloperoxidase (Homo sapiens, UniProt P05164).
T1 construct: endogenous in cells; host or cells: HL60 cells (endogenous enzyme, purified in house)
T1 sequence (P05164 49-745): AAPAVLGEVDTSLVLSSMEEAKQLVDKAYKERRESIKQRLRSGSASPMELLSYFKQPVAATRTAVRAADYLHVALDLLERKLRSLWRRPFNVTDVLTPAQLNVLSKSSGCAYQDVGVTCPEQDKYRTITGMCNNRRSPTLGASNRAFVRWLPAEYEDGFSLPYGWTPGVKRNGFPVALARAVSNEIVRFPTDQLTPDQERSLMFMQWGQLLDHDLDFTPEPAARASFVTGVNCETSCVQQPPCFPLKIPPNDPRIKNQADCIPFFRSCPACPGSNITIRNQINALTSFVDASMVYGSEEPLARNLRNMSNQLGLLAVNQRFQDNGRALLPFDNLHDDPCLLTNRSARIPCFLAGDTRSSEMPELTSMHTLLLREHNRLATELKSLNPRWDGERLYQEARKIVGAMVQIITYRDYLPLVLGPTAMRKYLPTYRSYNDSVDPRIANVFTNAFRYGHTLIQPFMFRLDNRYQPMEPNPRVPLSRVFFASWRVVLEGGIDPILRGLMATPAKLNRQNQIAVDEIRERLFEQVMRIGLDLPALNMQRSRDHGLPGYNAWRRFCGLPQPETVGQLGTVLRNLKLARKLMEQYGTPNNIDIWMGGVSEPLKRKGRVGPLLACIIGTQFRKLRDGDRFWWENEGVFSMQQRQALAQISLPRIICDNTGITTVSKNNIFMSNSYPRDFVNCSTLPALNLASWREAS
Nature of the assay: Generation of N-acetyl-L-3-bromotyrosine by the myeloperoxidase-H2O2-Cl^−-Br^− system (reverse-phase HPLC). In kind it is biochemical. Particulars: for effect on bromination of N-acetyl-L-tyrosine by myeloperoxidase: acidic (pH 5.9) and neutral conditions; for effect on bromination by the myeloperoxidase-H2O2-Cl^−-Br^− system: mildly acidic conditions (pH 5.9). On the procedure: (§1) General procedures. Myeloperoxidase was purified from HL60 cells (ref. 19). Enzyme was apparently pure as assessed by its absorption spectrum (A430/A280 ratio>0.8), SDS-PAGE, and peroxidase activity gel electrophoresis (ref. 20). Porcine eosinophil peroxidase (A415/A280>0.9) was from ExOxEmis (Little Rock, Ark.). Chloride-free NaOCl and HOBr were prepared by conventional procedures as described previously (refs. 21,22). Peritoneal white blood cells were elicited with intraperitoneal (i.p.) injection of 4% thioglycollate and harvested 24 h after injection (ref. 23). SDS-PAGE was performed using 10% Bis-Tris NuPAGE gels (Invitrogen; Carlsbad, Calif.). The separated proteins were transferred onto a nitrocellulose membrane, which was blocked overnight at 4° C. with 5% milk and 0.05% Tween-20 in phosphate-buffered saline (PBS; 10 mM phosphate, 138 mM NaCl, 2.7 mM KCl, pH 7.4). The blot was then incubated (1 h) with rabbit anti-mouse myeloperoxidase antibody (1:1,000) followed by goat anti-rabbit immunoglobulin antibody (1:10,000; Santa Cruz Biotechnology; Santa Cruz, Calif.) conjugated with horseradish peroxidase. West Pico chemiluminescent substrate (Pierce; Rockford, Ill.) was added, and the membrane was exposed to autoradiography film and developed.
Reaction conditions. Reactions were carried out for 60 min at 37° C. in buffer A (100 mM NaCl, 50 mM sodium phosphate, 100 μM diethylenetriaminepentaacetic acid (DTPA)) supplemented with 1 mM N-acetyl-L-tyrosine and either 50 μM hypohalous acid or 3 nM peroxidase and 50 μM H2O2. Buffer A was passed over a Chelex resin column prior to use to remove redox active transition metal ions. Reactions were initiated by the addition of oxidant and terminated with 0.1 mM methionine.
Reverse-phase HPLC analyses of halogenated amino acids. Analyses were performed using a flow rate of 1 mL/min and an Ultrasphere ODS reverse-phase column (4.6 mm×25 cm; 5 μm; Beckman Instruments; Berkeley, Calif.) coupled to a Waters 484 Tunable Absorbance Detector with monitoring at 275 nm. Solvent A was 0.1% trifluoroacetic acid (TFA, pH 2.5), and solvent B was 0.1% TFA in methanol (pH 2.5). The gradient profile was: isocratic elution at 66:34 (v/v) A:B over 2.1 min; linear increase of B from 34% to 40% over 30 min; isocratic elution at 60:40 A:B for 3 min; increase of B from 40% to 100% over 2 min; and isocratic elution at 100% B for 3 min. Products were quantified using integrated peak areas by comparison to standard curves of authentic N-Ac-chlorotyrosine and N-Ac-bromotyrosine.

The target in assay [4] is T2, eosinophil peroxidase (Sus scrofa, UniProt P80550).
T2 construct: purchased ExOxEmis (Little Rock, Ark.)
T2 sequence (P80550 143-704): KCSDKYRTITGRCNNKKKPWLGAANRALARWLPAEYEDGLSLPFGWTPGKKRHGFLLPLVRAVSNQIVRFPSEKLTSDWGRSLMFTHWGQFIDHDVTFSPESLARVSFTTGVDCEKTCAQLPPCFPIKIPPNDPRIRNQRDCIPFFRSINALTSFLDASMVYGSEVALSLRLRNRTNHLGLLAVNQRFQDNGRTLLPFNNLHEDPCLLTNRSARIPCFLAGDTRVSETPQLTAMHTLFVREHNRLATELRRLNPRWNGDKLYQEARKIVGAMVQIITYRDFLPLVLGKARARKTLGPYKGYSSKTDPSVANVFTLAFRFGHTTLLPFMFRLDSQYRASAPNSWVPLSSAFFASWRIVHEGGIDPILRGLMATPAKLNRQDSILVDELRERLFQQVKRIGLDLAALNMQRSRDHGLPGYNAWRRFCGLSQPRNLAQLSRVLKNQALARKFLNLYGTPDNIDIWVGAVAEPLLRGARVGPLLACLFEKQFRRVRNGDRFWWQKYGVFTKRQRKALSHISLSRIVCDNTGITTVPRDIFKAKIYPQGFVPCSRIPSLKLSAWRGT
Nature of the assay: Generation of N-acetyl-L-3-bromotyrosine by the eosinophil peroxidase-H2O2-Cl^−-Br^− system (reverse-phase HPLC). In kind it is biochemical, Porcine. On the procedure:
as §1, with “The blot was then incubated (1 h) with rabbit anti-mouse myeloperoxidase antibody (1:1,000) followed by goat anti-rabbit immunoglobulin antibody (1:10,000; Santa Cruz Biotechnology; Santa Cruz, Calif.) conjugated with horseradish peroxidase. West Pico chemiluminescent substrate (Pierce; Rockford, Ill.) was added, and the membrane was exposed to autoradiography film and developed.” left out
Reverse-phase HPLC analyses of halogenated amino acids. Analyses were performed using a flow rate of 1 mL/min and an Ultrasphere ODS reverse-phase column (4.6 mm×25 cm; 5 μm; Beckman Instruments; Berkeley, Calif.) coupled to a Waters 484 Tunable Absorbance Detector with monitoring at 275 nm. […] Products were quantified using integrated peak areas by comparison to standard curves of authentic N-Ac-chlorotyrosine and N-Ac-bromotyrosine.

[5] abbreviates: mildly acidic conditions (pH 5.9).
[6] abbreviates: neutral conditions (pH 7), taurine 200 μM.

On to `Br` [Br^−, bromide], for which the “bacteria killing (dead)” value in assay [1] (1 μM Br added to the complete myeloperoxidase-H2O2-Cl^− system) is recorded as 72%. For the same molecule, the “effect on bacteria killing” value in assay [1] (10 μM Br^− added to the complete myeloperoxidase-H2O2-Cl^− system) is given as “completely inhibitory”.
Turning to `NCCS(=O)(=O)O` [taurine], the “effect on formation of N-acetyl-L-3-bromotyrosine by the HOCl-Cl^−-Br^− system” value in assay [2] (setting [5]) was “inhibited”; in assay [2] (setting [6]), “completely inhibited”. The “effect on bromination of N-acetyl-L-tyrosine by myeloperoxidase” value in assay [3] was “inhibited”. Moreover, the “effect on bromination by the myeloperoxidase-H2O2-Cl^−-Br^− system” value in assay [3] was “almost completely inhibited”; in assay [3] (listed as Taurine), “inhibited”. Also, the “effect on N-acetyl-L-3-bromotyrosine formation by the myeloperoxidase-H2O2-Cl^−-Br^− system” value in assay [3] (setting [6]) was “only partially inhibited; also recorded: only partly inhibited”. In addition, the “effect on production of N-acetyl-L-3-bromotyrosine by the eosinophil peroxidase-H2O2-Cl^−-Br^− system” value in assay [4] (setting [5]) is listed as “failed to affect”. Moreover, the “effect on N-acetyl-L-3-bromotyrosine formation by the eosinophil peroxidase-H2O2-Cl^−-Br^− system” value in assay [4] (setting [6]) is “little affect”.

B1: catalase: a peroxide scavenger (protein, UniProt P04040 2-527, looked up)
Catalase: ADSRDPASDQMQHWKEQRAAQKADVLTTGAGNPVGDKLNVITVGPRGPLLVQDVVFTDEMAHFDRERIPERVVHAKGAGAFGYFEVTHDITKYSKAKVFEHIGKKTPIAVRFSTVAGESGSADTVRDPRGFAVKFYTEDGNWDLVGNNTPIFFIRDPILFPSFIHSQKRNPQTHLKDPDMVWDFWSLRPESLHQVSFLFSDRGIPDGHRHMNGYGSHTFKLVNANGEAVYCKFHYKTDQGIKNLSVEDAARLSQEDPDYGIRDLFNAIATGKYPSWTFYIQVMTFNQAETFPFNPFDLTKVWPHKDYPLIPVGKLVLNRNPVNYFAEVEQIAFDPSNMPPGIEASPDKMLQGRLFAYPDTHRHRLGPNYLHIPVNCPYRARVANYQRDGPMCMQDNQGGAPNYYPNSFGAPEQQPSALEHSIQYSGEVRRFNTANDDNVTQVRAFYVNVLNEEQRKRLCENIAGHLKDAQIFIQKKAVKNFTEVHPDYGSHIQALLDKYNAEKPKNAIHTFVQSGSHLAAREKANL
Regarding B1, the “effect on bromination of N-acetyl-L-tyrosine by myeloperoxidase” value in assay [3] was “inhibited”.

For the origin of these results see US6939716B2, “Method for detecting conditions indicative of sepsis” (Washington University, priority 2001, dated 2005).
